Data reported in patent US6998249B1, “Toxicity screening method” (priority 1999, dated 2006).
Where two headings read alike, the source gives them in different places.

What was measured:
H4IIE cells [1] = assay: Cluster Analysis Toxicity Screening (CATS), combined cell number, GST, MTT and ATP assays; assay type: cell-based
From the text: (§1) The test compounds were received pre-weighed into glass vials. The preparation of 20 millimolar stock solutions was accomplished by adding a sufficient amount of dimethylsulfoxide (DMSO) directly into the vials. These stocks were used to prepare 200 micromolar stock solutions in DMSO. Both the 20 millimolar and 200 micromolar, stocks were used to prepare dosing solutions of 0.05, 0.1, 1.0, 5.0, 10.0, 20.0, 50.0, 100, and 300 micromolar in culture media with a final DMSO concentration of 0.5%. The stocks and dosing solutions were prepared on the day prior to dosing. The solutions were wrapped in foil and stored at 4° C. until the next morning.
(§2) Negative controls of media plus DMSO (0.5%) were included with and without cells. A digitonin (1 mM) treated group was included as a positive control for complete cell death.
(§3) Rat hepatoma derived H4IIE cells were used as the test system. The cells were obtained from ATCC (# CRL-1548) and subcultured in the laboratory. The culture medium used for these cells was Eagle's Minimum Essential Medium (MEM) with 10% Fetal Bovine Serum (FBS) and 10% calf serum. Certified FBS and calf serum were from Gibco Life Technologies.
(§4) 96-well plates were seeded with […] in 200 microliters of media 48 hour prior to dosing. On the morning of the third day after seeding, the test compounds were added to the plates in a 200 microliter volume of medium (DMSO=0.5%).
(§5) In this Example, ketoconazole was used as the test drug. Rat hepatoma cells were seeded into 96-well culture plates and allowed to establish growth for 48 hours. Following this growth phase, the cells were treated with 0, 0.05, 0.1, 1, 5, 10, 20, 50, 100, and 300 micromolar of ketoconazole in growth medium and 0.5% DMSO. […]

H4IIE cells [2] = assay: MTT mitochondrial function assay; assay type: cell-based, rat
Method: (§6) (3-(4,5-dimethylthiazol-2-yl)-2,5-diphenyl-tetrazolium bromide (MTT). After the media was removed from a plate for GST analysis, the cells remaining in each well were evaluated for their ability to reduce the tetrazolium dye to formazan via mitochondrial dehydrogenase activity. An MTT stock solution was prepared in Earl's Buffered Salt Solution (EBSS) to a final concentration of 5.0 mg/ml. This stock was diluted 10-fold with complete media (0.5 mg/ml) just prior to use and warmed to 37° C. in a water bath. In some instances the MTT powder may be added directly to complete medium to give a final concentration of 0.5-mg/ml. Once the media was removed from all wells 200 microliter, of the 0.5 mg/ml MTT solution was added to each well and the plate was allowed to incubate at 37° C. for 3-4 hours. Color development is linear over this time.
(§7) After the 3-4 hour incubation, all media was removed and the purple formazan product was extracted by adding 200 microliters, of anhydrous isopropanol. The plates were covered with foil and placed on an orbital shaker for 30 min at room temperature. Each well was aspirated with a multi-channel pipette to insure solubilization of the formzan dye and then the plate was centrifuged at 3000 rpms in a Beckman Allegra 6R centrifuge equipped with a GH3.8 rotor to remove insoluble cellular debris. Analyses were performed by transferring 100 microliters, of supernatant to a clean 96-well plate and then reading the sample absorbance at 570 nm and the reference absorbance at 650 nm with a Packard scanning spectrophotometer.
(§8) At the end of the 24 hour exposure period the media was removed and the remaining attached cells were assayed for mitochondrial function. […] Percent control values were determined by dividing the mean absorbance of the treatment group by the mean absorbance of the control group and multiplying by 100.

H4IIE cells [3] = assay: Glutathione S-transferase (GST) leakage assay (membrane integrity); settings: 6 hour exposure
Method: (§9) Measurements of A-GST leakage from cultured cells into the media can be used to assess membrane integrity. This assay is specific for the alpha form of GST that exists at high concentrations in the cytosol of hepatocytes. An ELISA kit purchased from Biotrin Inc. was used to measure GST.
(§10) On the morning after dosing the cells (approximately 24 hours) the media covering the cells in each well was removed and placed into new 96-well plates with appropriate labeling. These media plates were stored at −80° C. until needed for analysis.
(§11) Leakage of the GST enzyme is determined by collecting the media in which the cells were exposed to the test compound at the end of the 24 hour exposure period. Thus, GST values represent total GST lost over the exposure period. The control for 100% dead or maximum GST release is based on cells treated with 1 mM digitonin at T0. Percent dead cells relative to digitonin treated cells was determined and then subtracted from 100 to yield the percent live cells.

H4IIE cells [4] = assay: ATP assay (ATP-Lite); assay type: cell-based, rat
Method: Cellular Adenosine triphosphate (ATP) was determined with the ATP-Lite kit from Packard Instruments according to the manufacturer's instructions. This assay is based on a reaction between ATP+D-luciferin+oxygen catalyzed by luciferase to yield Oxyluciferin+AMP+PPi+CO2+light. The emitted light is proportional to the amount of ATP present. Rather than a “flash” type signal which has a very short half-life, this assay utilizes a “glow” technology that extends the signal half-life to 5 hours. In addition, a unique cell lysis reagent inhibits endogenous ATPases and therefore stabilizes cellular ATP by preventing its degradation to ADP.. ATP is present in all living cells and declines rapidly upon cell death. In addition, this assay in combination with the MTT assay provides an indicator of mitochondrial activity and the energy status of the cell.
Changes in ATP may be expressed as a percent change relative to controls by dividing the mean treatment luminescence values by the control values and multiplying by 100. An actual amount of ATP can also be determined by including an ATP calibration curve in the assay and then converting the luminescence response to an ATP concentration with the regression coefficients. Finally, it is possible to estimate the amount of ATP produced per cell, by dividing the pmol ATP data by cell number. Typically, cells try to maintain a stable level of ATP and therefore this parameter is not routinely calculated unless information on the stability of the ATP pool is desired.

H4IIE cells [5] = assay: Cell proliferation (CYQUANT) cell number assay; assay type: cell-based, rat
Method: Cell number in each well was determined with the CYQUANT® cell proliferation kit from Molecular Probes. This assay is based on a DNA-specific binding dye that fluoresces upon interaction with DNA. Conversion to cell number is achieved by comparing sample fluorescence units to a standard curve based on fluorescence units/cell. The assay was performed essentially as described by the manufacturer with the following exceptions: The digitonin (1 mM) or Triton X 100 (1%) was added to the lysis buffer. The lysis buffer was added to the plates immediately after removing the plates from the −80° C. freezer. The plates were shaken for 20 min prior to reading the fluorescence.
Cell number was determined by establishing a calibration curve. In order to obtain fluorescence units (FU) per cell 1×10^6 cells were placed in a tube and centrifuged to a pellet. The pellet was then resuspended in 1 milliliters of a cell lysis buffer containing the DNA binding dye. Thus, one million cells in 1000 milliliters yields a relationship of 1000 cells per microliter of suspension. This provides FU/cell. Cell number for samples was determined by applying the FU obtained to the calibration curve. The percent change relative to controls was determined by dividing the treatment cell number by the control cell number and multiplying by 100.

liver [6] = settings: rats; cited from earlier work
[7] = Cluster Analysis Toxicity Screening (CATS), combined cell number, GST, MTT and ATP assays; assay type: cell-based; settings: rat, 24 hour exposure
From the text: as §1, §2, §3, §4, §5

[8] = MTT mitochondrial function assay; assay type: cell-based, rat; settings: rat, H4IIE rat hepatoma cells; 24 hour exposure; read-out: TC50 for MTT
Method: as §6, §7, §8

liver [9] = settings: humans; cited from earlier work
isolated mitochondria = settings: cited from earlier work
H4IIE cells [10] = settings: rat, 24 h
Method: as §9, §10, §11

Compound: O=C(N[C@H](CO)[C@H](O)c1ccc([N+](=O)[O-])cc1)C(Cl)Cl [chloramphenical]
- change of TC50 with exposure time (H4IIE cells [1]; time course over a 72 hour exposure period, H4IIE cells): largest shift in TC50 values occurred between 24 and 48 hours

Compound: CC[C@H]1/C=C/C=C/C[C@@H](C)[C@H](O)[C@@](C)(O)C(=O)[C@@H](C)[C@H](O)[C@@H](C)C(=O)[C@@H](C)[C@H](O)[C@@H](C)/C=C/C(=O)O[C@@H]2[C@H](C)[C@H](CC1)O[C@]1(CC[C@H](C)[C@H](C[C@@H](C)O)O1)[C@H]2C [oligomycin]
- effect on MTT (H4IIE cells [2]; 6 hour exposure): significantly reduced
- effect on GST leakage (H4IIE cells [3]): unaffected
- effect on ATP (H4IIE cells [4]; 6 hour exposure): completely depleted
- effect on cell number (H4IIE cells [5]; 6 hour exposure): unaffected

Compound: C[S+](C)[O-] [DMSO, dimethylsulfoxide]
- concentrations with no effects on cell proliferation, MTT and GST (H4IIE cells [1]; rat): below 2%

Compound: C[C@@H]1[C@H](O)[C@@H](C)/C=C/C=C/C=C/C=C/C=C/C=C/C=C/[C@H](O[C@@H]2O[C@H](C)[C@@H](O)[C@H](N)[C@@H]2O)C[C@@H]2O[C@](O)(C[C@@H](O)C[C@@H](O)[C@H](O)CC[C@@H](O)C[C@@H](O)CC(=O)O[C@H]1C)C[C@H](O)[C@H]2C(=O)O [amphotericin]
- influence of final DMSO concentration on toxicity (H4IIE cells [1]): No significant differences in toxicity

Compound: CC(=O)N1CCN(c2ccc(OCC3COC(Cn4ccnc4)(c4ccc(Cl)cc4Cl)O3)cc2)CC1 (centres unmarked) [ketoconazole]
- sustained plasma concentration producing hepatic damage (liver [6]): 60 µM
- CC50 at 24 h ([7]; cell number, ATP, GST, read-out: TC50 for all other endpoints (than MTT)): > 100 µM
- CC50 at 24 h ([7]; H4IIE cells, all parameters, read-out: TC50 values): ≥ 50 µM
- CC50 at 24 h ([7]; H4IIE cells, cell number, GST leakage, MTT, ATP, read-out: TC50, all parameters measured): ≥ 50 µM
- influence of final DMSO concentration on toxicity (H4IIE cells [1]): No significant differences in toxicity
- Ctox, estimated plasma concentration that would produce toxicity (H4IIE cells [1]; rat, 24 h): 20 µM
- change of TC50 with exposure time (H4IIE cells [1]; rat, 72 h): largest shift in TC50 values occurred between 24 and 48 hours
- CC50 at 24 h [8]: 70 µM
- concentration of early toxic effects in MTT assay (H4IIE cells [2]; 24 hour exposure): below 20 micromolar
- effect on MTT (H4IIE cells [2]; 24 hour exposure): reduced
- sustained plasma concentration resulting in liver toxicity (liver [9]): 30 µM
- effect on State III respiration (isolated mitochondria): direct inhibition
- effect on ATP (H4IIE cells [4]): reduced
- concentration of early toxic effects in ATP assay (H4IIE cells [4]; rat, 24 h): below 20 micromolar
- effect on cell number (H4IIE cells [5]; 24 hour exposure): dose-related reduction in cell number
- concentrations at which not toxic to cells by GST leakage (H4IIE cells [10]): below 300 micromolar
